The values below come from publication PMC10144242, “Design, Synthesis, In Vitro, and In Silico Insights of 5-(Substituted benzylidene)-2-phenylthiazol-4(5H)-one Derivatives: A Novel Class of Anti-Melanogenic Compounds” (Molecules, 2023).

SMILES strings stand for the structures.

In this assay the test system is tyrosinase protein expression in B16F10 cells. Put plainly: Western blot of tyrosinase protein in IBMX/α-MSH-stimulated cells. The assay is classed as cell-based, murine. As to conditions: for tyrosinase expression level relative to untreated control: B16F10, 20 µM, IBMX 200 µM + α-MSH 1 µM, stimulator alone 6.6-fold (for 1), 5.7-fold (for 2); for effect on tyrosinase expression levels: B16F10, 5, 10, 20 µM, IBMX + α-MSH. As for the experimental part:
We investigated whether the derivatives 1 and 2 could influence the expression of tyrosinase protein using Western blotting. […] At 20 µM, derivatives 1 and 2 reduced the tyrosinase expression levels that increased during the stimulator treatment to 4.4- and 3.1-fold, respectively, implying that derivatives 1 and 2 may, in part, contribute to their anti-melanogenic actions by inhibiting tyrosinase expression.
After stimulating murine melanoma (B16F10) cells with α-MSH and IBMX for 24 h in the presence or absence of the tested derivatives at the indicated concentrations, the cells were lysed with lysis buffer containing protease and phosphatase inhibitors. Protein concentrations were determined using a BCA protein assay kit, according to the manufacturer’s instructions (Pierce, Rockford, IL, USA). Lysate proteins in each sample (10–20 µg) were subjected to 9% sodium dodecyl sulfate–polyacrylamide gel electrophoresis and electrophoretically transferred to a PVDF membrane (Millipore, Billerica, MA, USA) using a semi-dry system (Bio-Rad, Hercules, CA, USA). The membranes were incubated with 5% non-fat milk in TBST (0.1 M Tris-HCl, pH 7.5, 1.5 M NaCl, and 1% Tween 20) for 2 h. After blocking, the membranes were incubated with primary antibodies at 4 °C overnight. The following antibodies were used: tyrosinase and β-actin primary antibodies, as well as horseradish peroxidase-conjugated anti-mouse and anti-goat secondary antibodies (Santa Cruz Biotechnology, Dallas, TX, USA). The protein bands were visualized using the SuperSignal West Pico Chemiluminescence assay kit (Advansta, San Jose, CA, USA) and the Davinch–Chem program (Davinch-K, Seoul, Republic of Korea). The relative intensities were acquired using CS Analyzer 3.2 (Densitograph) image analysis software (http://www.attokorea.co.kr, accessed on 21 November 2022).
Figure 13 Effects of (Z)-BPT derivatives 1 and 2 on tyrosinase expression. Tyrosinase expression levels were evaluated in the presence of a stimulator (1 µM of α-MSH plus 200 µM of IBMX) with various concentrations (5, 10, and 20 µM) of derivatives 1 and 2 in B16F10 cells. ^### p < 0.001; * p < 0.05, and ** p < 0.01.
(In general: In western blotting, separated proteins are transferred to a membrane and probed.)

On to `O=C1N=C(c2ccccc2)S/C1=C\c1ccc(O)cc1` [Compound 1, (Z)-5-(4-Hydroxybenzylidene)-2-phenylthiazol-4(5H)-one], for which the “tyrosinase expression level relative to untreated control” value turned out to be 4.4 fold and the “effect on tyrosinase expression levels” value is “significantly reduced the tyrosinase expression levels in a dose-dependent manner”.
The matching figures for `O=C1N=C(c2ccccc2)S/C1=C\c1ccc(O)cc1O` [Compound 2, (Z)-5-(2,4-Dihydroxybenzylidene)-2-phenylthiazol-4(5H)-one]: 3.1 fold and “significantly reduced the tyrosinase expression levels in a dose-dependent manner”.
